Where two headings read alike, the source gives them in different places.
Experiments:
Assay in all cases: cell-based
hNav1.7 = hNav1.7 (Homo sapiens, UniProt Q15858); conditions: read-out: IC50 (μM) Nav1.7
hNav1.5 = hNav1.5 (Homo sapiens, UniProt Q14524); conditions: IonWorks Quattro, read-out: IC50 (μM) Nav1.5
hNav1.4 = hNav1.4 (Homo sapiens, UniProt P35499); type: cell-based; conditions: for IC50: IonWorks Quattro, read-out: IC50 (μM) Nav1.4; for Nav1.4/Nav1.7: ratio of IonWorks Quattro IC50 values
hNav1.3 = hNav1.3 (Homo sapiens, UniProt Q9NY46); conditions: IonWorks Quattro, read-out: IC50 (μM) Nav1.3
Chain of hNav1.3 (Q9NY46 whole entry): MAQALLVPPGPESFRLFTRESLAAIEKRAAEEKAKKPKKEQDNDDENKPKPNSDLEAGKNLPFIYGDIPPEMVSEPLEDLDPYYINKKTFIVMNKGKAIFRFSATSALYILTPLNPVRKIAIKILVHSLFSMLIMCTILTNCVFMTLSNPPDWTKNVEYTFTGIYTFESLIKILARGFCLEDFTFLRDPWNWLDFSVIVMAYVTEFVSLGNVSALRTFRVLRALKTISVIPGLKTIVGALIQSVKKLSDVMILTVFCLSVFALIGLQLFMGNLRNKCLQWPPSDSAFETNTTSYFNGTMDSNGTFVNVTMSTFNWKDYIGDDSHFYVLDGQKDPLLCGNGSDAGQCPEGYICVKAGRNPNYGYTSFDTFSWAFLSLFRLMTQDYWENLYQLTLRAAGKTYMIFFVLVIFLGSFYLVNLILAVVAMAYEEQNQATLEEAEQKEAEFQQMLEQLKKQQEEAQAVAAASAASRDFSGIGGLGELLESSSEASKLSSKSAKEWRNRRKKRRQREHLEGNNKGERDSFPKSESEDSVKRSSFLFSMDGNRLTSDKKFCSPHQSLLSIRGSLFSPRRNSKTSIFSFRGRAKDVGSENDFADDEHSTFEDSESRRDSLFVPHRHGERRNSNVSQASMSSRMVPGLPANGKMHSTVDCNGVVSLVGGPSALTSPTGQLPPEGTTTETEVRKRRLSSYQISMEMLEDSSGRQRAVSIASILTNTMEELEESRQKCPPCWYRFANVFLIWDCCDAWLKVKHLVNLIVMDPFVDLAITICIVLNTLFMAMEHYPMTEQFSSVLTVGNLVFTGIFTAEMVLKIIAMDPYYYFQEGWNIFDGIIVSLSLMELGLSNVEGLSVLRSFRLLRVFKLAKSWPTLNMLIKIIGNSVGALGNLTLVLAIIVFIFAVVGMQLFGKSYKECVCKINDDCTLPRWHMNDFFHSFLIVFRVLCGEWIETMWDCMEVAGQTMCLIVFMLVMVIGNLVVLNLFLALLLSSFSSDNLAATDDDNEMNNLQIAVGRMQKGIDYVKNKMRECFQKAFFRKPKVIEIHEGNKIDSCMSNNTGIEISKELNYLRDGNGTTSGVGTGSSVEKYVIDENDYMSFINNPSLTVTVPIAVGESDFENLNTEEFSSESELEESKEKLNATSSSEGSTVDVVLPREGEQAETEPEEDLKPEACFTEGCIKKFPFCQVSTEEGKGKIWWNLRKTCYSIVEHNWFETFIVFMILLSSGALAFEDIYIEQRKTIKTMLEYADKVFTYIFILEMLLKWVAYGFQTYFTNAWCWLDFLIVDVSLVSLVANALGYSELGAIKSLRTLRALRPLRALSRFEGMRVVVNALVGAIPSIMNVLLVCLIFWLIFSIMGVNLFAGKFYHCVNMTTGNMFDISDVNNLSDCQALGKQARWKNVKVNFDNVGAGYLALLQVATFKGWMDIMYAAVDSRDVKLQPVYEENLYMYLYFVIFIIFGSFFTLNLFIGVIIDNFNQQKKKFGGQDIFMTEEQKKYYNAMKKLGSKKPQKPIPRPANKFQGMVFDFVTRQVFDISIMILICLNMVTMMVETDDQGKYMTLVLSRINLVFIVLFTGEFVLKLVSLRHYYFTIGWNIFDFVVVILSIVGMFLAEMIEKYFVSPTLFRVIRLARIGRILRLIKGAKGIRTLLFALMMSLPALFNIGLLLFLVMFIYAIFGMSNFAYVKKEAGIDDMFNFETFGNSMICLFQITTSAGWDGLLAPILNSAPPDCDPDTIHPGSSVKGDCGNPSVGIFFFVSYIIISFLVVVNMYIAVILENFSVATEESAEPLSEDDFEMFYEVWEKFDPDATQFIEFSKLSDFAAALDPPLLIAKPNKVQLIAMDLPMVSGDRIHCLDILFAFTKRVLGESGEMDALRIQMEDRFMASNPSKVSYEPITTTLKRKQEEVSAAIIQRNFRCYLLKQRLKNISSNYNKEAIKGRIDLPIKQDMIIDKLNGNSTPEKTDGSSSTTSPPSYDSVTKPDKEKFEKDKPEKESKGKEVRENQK

Chain of hNav1.7 (Q15858 whole entry): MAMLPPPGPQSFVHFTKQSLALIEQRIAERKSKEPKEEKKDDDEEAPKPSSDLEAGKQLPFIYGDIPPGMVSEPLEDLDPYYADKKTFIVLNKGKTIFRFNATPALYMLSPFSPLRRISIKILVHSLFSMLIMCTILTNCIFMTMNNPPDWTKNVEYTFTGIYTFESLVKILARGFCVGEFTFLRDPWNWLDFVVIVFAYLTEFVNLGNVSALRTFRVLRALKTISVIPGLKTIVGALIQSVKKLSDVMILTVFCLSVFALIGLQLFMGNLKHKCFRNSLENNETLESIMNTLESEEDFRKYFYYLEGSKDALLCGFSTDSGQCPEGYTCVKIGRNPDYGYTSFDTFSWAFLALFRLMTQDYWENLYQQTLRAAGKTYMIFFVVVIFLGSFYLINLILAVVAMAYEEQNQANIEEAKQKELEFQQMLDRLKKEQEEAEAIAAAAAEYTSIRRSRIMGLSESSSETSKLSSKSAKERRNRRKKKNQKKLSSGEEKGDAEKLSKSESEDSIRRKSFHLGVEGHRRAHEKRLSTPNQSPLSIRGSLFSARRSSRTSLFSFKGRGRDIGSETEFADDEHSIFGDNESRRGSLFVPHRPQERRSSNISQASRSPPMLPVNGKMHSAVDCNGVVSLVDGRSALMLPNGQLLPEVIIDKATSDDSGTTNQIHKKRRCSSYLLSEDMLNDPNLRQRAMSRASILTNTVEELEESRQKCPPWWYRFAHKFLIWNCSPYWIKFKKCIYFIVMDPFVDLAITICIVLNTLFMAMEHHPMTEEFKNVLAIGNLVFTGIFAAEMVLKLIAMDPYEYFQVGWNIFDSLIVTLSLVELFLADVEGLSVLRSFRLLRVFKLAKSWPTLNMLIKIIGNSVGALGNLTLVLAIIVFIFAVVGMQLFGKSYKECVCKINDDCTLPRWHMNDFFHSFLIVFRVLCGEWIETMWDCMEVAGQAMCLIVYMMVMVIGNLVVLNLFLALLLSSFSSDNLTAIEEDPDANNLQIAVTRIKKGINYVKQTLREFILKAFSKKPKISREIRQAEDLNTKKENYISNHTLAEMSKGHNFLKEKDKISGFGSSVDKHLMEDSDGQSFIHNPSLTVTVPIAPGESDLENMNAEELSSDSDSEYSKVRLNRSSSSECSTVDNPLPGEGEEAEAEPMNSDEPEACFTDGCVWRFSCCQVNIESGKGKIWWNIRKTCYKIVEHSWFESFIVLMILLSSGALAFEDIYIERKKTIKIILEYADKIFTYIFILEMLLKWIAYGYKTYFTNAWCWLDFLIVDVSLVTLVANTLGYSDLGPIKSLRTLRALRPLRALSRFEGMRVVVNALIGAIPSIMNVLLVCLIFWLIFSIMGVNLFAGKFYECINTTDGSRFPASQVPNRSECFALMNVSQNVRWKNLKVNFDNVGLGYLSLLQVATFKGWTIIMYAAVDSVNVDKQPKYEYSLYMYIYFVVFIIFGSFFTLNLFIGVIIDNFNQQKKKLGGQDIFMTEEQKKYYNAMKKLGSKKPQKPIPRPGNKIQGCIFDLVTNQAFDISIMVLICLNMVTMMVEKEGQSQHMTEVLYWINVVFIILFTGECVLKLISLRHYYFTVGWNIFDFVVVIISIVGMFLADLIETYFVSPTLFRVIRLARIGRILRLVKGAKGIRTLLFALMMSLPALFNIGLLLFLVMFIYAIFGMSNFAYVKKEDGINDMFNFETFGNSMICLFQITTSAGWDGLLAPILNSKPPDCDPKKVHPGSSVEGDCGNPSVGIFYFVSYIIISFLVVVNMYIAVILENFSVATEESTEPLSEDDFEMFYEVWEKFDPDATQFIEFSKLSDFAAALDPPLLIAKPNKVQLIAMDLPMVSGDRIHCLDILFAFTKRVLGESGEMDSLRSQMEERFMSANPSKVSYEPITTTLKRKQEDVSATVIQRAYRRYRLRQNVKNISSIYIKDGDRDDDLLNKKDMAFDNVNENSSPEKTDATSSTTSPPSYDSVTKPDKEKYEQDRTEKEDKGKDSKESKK

Row | Structure (SMILES) | IC50 (hNav1.7) [µM] | IC50 (hNav1.5; Table 6) [µM] | IC50 (hNav1.4; Table 6) [µM] | Nav1.4/Nav1.7 (hNav1.4; Table 6) | IC50 (hNav1.3; Table 6) [µM] | IC50 (hNav1.7; IonWorks Quattro, […]) [µM] | IC50 (hNav1.5; Table 9) [µM] | IC50 (hNav1.4; Table 9) [µM] | IC50 (hNav1.3; Table 9) [µM]
1 | CC[C@H](C)[C@H](NC(=O)[C@H](CCCCN)NC(=O)[C@H](CCCCN)NC(=O)[C@H](CCCNC(=N)N)NC(=O)[C@@H]1CSSC[C@@H]2NC(=O)[C@H](C)NC(=O)[C@H](CCCNC(=N)N)NC(=O)[C@H](CCCCN)NC(=O)[C@H](CO)NC(=O)[C@H](CC(=O)O)NC(=O)[C@@H]3CSSC[C@H](NC(=O)[C@H](CCCNC(=N)N)NC(=O)[C@H](CC(C)C)NC(=O)CNC(=O)[C@H](CCC(=O)O)NC(=O)[C@H](CSSC[C@H](NC(=O)[C@@H](N)Cc4ccc(O)cc4)C(=O)N[C@@H](CCC(N)=O)C(=O)N[C@@H](CCCCN)C(=O)N[C@@H](Cc4c[nH]c5ccccc45)C(=O)N[C@@H](CCSC)C(=O)N[C@@H](Cc4c[nH]c5ccccc45)C(=O)N[C@@H]([C@@H](C)O)C(=O)N3)NC2=O)C(=O)N[C@@H](CCCCN)C(=O)N[C@@H](CC(C)C)C(=O)N[C@@H](Cc2c[nH]c3ccccc23)C(=O)N1)C(N)=O [compound 88] | 0.014 | 1.5 | 0.11 | 8 | 0.05 | – | – | – | –
2 | CC[C@H](C)[C@H](NC(=O)[C@@H](NC(=O)[C@H](CCCCN)NC(=O)[C@H](CCCNC(=N)N)NC(=O)[C@@H]1CSSC[C@@H]2NC(=O)[C@H](C)NC(=O)[C@H](CCCNC(=N)N)NC(=O)[C@H](CCCCN)NC(=O)[C@H](CO)NC(=O)[C@H](CC(=O)O)NC(=O)[C@@H]3CSSC[C@H](NC(=O)[C@H](CCCNC(=N)N)NC(=O)[C@H](CC(C)C)NC(=O)CNC(=O)[C@H](CCC(=O)O)NC(=O)[C@H](CSSC[C@H](NC(=O)[C@@H](N)Cc4ccc(O)cc4)C(=O)N[C@@H](CCC(N)=O)C(=O)N[C@@H](CCCCN)C(=O)N[C@@H](Cc4c[nH]c5ccccc45)C(=O)N[C@@H](CCSC)C(=O)N[C@@H](Cc4c[nH]c5ccccc45)C(=O)N[C@@H]([C@@H](C)O)C(=O)N3)NC2=O)C(=O)N[C@@H](CCCCN)C(=O)N[C@@H](C)C(=O)N[C@@H](Cc2c[nH]c3ccccc23)C(=O)N1)[C@@H](C)CC)C(N)=O [compound 19] | 0.3 | > 5 | 0.34 | 1 | 0.44 | – | – | – | –
3 | CC[C@H](C)[C@H](NC(=O)[C@@H](NC(=O)[C@H](CCCCN)NC(=O)[C@H](CCCNC(=N)N)NC(=O)[C@@H]1CSSC[C@@H]2NC(=O)[C@H](C)NC(=O)[C@H](CCCNC(=N)N)NC(=O)[C@H](CCCCN)NC(=O)[C@H](CO)NC(=O)[C@H](CC(=O)O)NC(=O)[C@@H]3CSSC[C@H](NC(=O)[C@H](CCCNC(=N)N)NC(=O)[C@H](CC(C)C)NC(=O)CNC(=O)[C@H](CCC(=O)O)NC(=O)[C@H](CSSC[C@H](NC(=O)[C@@H](N)Cc4ccc(O)cc4)C(=O)N[C@@H](CCC(N)=O)C(=O)N[C@@H](CCCCN)C(=O)N[C@@H](Cc4c[nH]c5ccccc45)C(=O)N[C@@H](CCSC)C(=O)N[C@@H](Cc4c[nH]c5ccccc45)C(=O)N[C@@H](C)C(=O)N3)NC2=O)C(=O)N[C@@H](CCCCN)C(=O)N[C@@H](CC(C)C)C(=O)N[C@@H](Cc2c[nH]c3ccccc23)C(=O)N1)[C@@H](C)CC)C(N)=O [compound 9] | 0.025 | > 5 | 0.25 | 10 | 0.21 | – | – | – | –
4 | CC[C@H](C)[C@H](NC(=O)[C@H](CCCCN)NC(=O)[C@H](CCCNC(=N)N)NC(=O)[C@@H]1CSSC[C@@H]2NC(=O)[C@H](C)NC(=O)[C@H](CCCNC(=N)N)NC(=O)[C@H](CCCCN)NC(=O)[C@H](CO)NC(=O)[C@H](CC(=O)O)NC(=O)[C@@H]3CSSC[C@H](NC(=O)[C@H](CCCNC(=N)N)NC(=O)[C@H](CC(C)C)NC(=O)CNC(=O)[C@H](CCC(=O)O)NC(=O)[C@H](CSSC[C@H](NC(=O)[C@@H](N)Cc4ccc(O)cc4)C(=O)N[C@@H](CCC(N)=O)C(=O)N[C@@H](CCCCN)C(=O)N[C@@H](Cc4c[nH]c5ccccc45)C(=O)N[C@@H](CCSC)C(=O)N[C@@H](Cc4c[nH]c5ccccc45)C(=O)N[C@@H]([C@@H](C)O)C(=O)N3)NC2=O)C(=O)N[C@@H](CCCCN)C(=O)N[C@@H](CC(C)C)C(=O)N[C@@H](Cc2c[nH]c3ccccc23)C(=O)N1)C(=O)N[C@@H](CCCNC(=N)N)C(N)=O [compound 109] | 0.067 | > 5 | 1.1 | 16 | 1.3 | – | – | – | –
5 | CC[C@H](C)[C@H](NC(=O)[C@@H](NC(=O)[C@H](CCCCN)NC(=O)[C@H](CCCNC(=N)N)NC(=O)[C@@H]1CSSC[C@@H]2NC(=O)[C@H](C)NC(=O)[C@H](CCCCN)NC(=O)[C@H](CCCCN)NC(=O)[C@H](CO)NC(=O)[C@H](CC(=O)O)NC(=O)[C@@H]3CSSC[C@H](NC(=O)[C@H](CCCNC(=N)N)NC(=O)[C@H](CC(C)C)NC(=O)CNC(=O)[C@H](CCC(=O)O)NC(=O)[C@H](CSSC[C@H](NC(=O)[C@@H](N)Cc4ccc(O)cc4)C(=O)N[C@@H](CCC(N)=O)C(=O)N[C@@H](CCCCN)C(=O)N[C@@H](Cc4c[nH]c5ccccc45)C(=O)N[C@@H](CCSC)C(=O)N[C@@H](Cc4c[nH]c5ccccc45)C(=O)N[C@@H]([C@@H](C)O)C(=O)N3)NC2=O)C(=O)N[C@@H](CCCCN)C(=O)N[C@@H](CC(C)C)C(=O)N[C@@H](Cc2c[nH]c3ccccc23)C(=O)N1)[C@@H](C)CC)C(N)=O [compound 79] | 0.064 | > 5 | 0.47 | 7 | 0.12 | – | – | – | –
6 | CC[C@H](C)[C@H](NC(=O)[C@@H](NC(=O)[C@H](CCCCN)NC(=O)[C@H](CCCNC(=N)N)NC(=O)[C@@H]1CSSC[C@@H]2NC(=O)[C@H](C)NC(=O)[C@H](CCCNC(=N)N)NC(=O)[C@H](CCCCN)NC(=O)[C@H](CO)NC(=O)[C@H](CC(=O)O)NC(=O)[C@@H]3CSSC[C@H](NC(=O)[C@H](CCCNC(=N)N)NC(=O)[C@H](CC(C)C)NC(=O)CNC(=O)[C@H](CCC(=O)O)NC(=O)[C@H](CSSC[C@H](NC(=O)[C@@H](N)Cc4ccc(O)cc4)C(=O)N[C@@H](CCC(N)=O)C(=O)N[C@@H](CCCCN)C(=O)N[C@@H](Cc4c[nH]c5ccccc45)C(=O)N[C@@H](CCSC)C(=O)N[C@@H](Cc4c[nH]c5ccccc45)C(=O)N[C@@H]([C@@H](C)O)C(=O)N3)NC2=O)C(=O)N[C@@H](C)C(=O)N[C@@H](CC(C)C)C(=O)N[C@@H](Cc2c[nH]c3ccccc23)C(=O)N1)[C@@H](C)CC)C(N)=O [compound 18] | 0.062 | > 5 | 0.41 | 7 | 0.52 | – | – | – | –
7 | CCCC[C@@H]1NC(=O)[C@H](Cc2cn(CCCOCCOCCOCCOCCOCCOCCOCCOCCOCCOCCN)nn2)NC(=O)[C@H](CCCCN)NC(=O)[C@H](CCC(N)=O)NC(=O)[C@@H](NC(=O)[C@@H](N)Cc2ccc(O)cc2)CSSC[C@@H]2NC(=O)[C@@H]3CSSC[C@@H](C(=O)N[C@@H](CCCNC(=N)N)C(=O)N[C@@H](CCCCN)C(=O)N[C@H](C(=O)N[C@H](C(N)=O)[C@@H](C)CC)[C@@H](C)CC)NC(=O)[C@H](Cc4c[nH]c5ccccc45)NC(=O)[C@H](CC(C)C)NC(=O)[C@H](CCCCN)NC(=O)[C@H](CSSC[C@H](NC(=O)[C@H]([C@@H](C)O)NC(=O)[C@H](Cc4c[nH]c5ccccc45)NC1=O)C(=O)N[C@@H](CC(=O)O)C(=O)N[C@@H](CO)C(=O)N[C@@H](CCCCN)C(=O)N[C@@H](CCCNC(=N)N)C(=O)N[C@@H](C)C(=O)N3)NC(=O)[C@H](CCCNC(=N)N)NC(=O)[C@H](CC(C)C)NC(=O)CNC(=O)[C@H](CCC(=O)O)NC2=O [compound 251] | – | – | – | – | – | > 7 | > 7 | > 7 | > 7
8 | CC[C@H](C)[C@H](NC(=O)[C@@H](NC(=O)[C@H](CCCCN)NC(=O)[C@H](CCCNC(=N)N)NC(=O)[C@@H]1CSSC[C@@H]2NC(=O)[C@H](C)NC(=O)[C@H](CCCNC(=N)N)NC(=O)[C@H](CCCCN)NC(=O)[C@H](CO)NC(=O)[C@H](CC(=O)O)NC(=O)[C@@H]3CSSC[C@H](NC(=O)[C@H](CCCNC(=N)N)NC(=O)[C@H](CC(C)C)NC(=O)CNC(=O)[C@H](CCC(=O)O)NC(=O)[C@H](CSSC[C@H](NC(=O)[C@@H](N)Cc4ccc(O)cc4)C(=O)N[C@@H](CCC(N)=O)C(=O)N[C@@H](CCCCN)C(=O)N[C@@H](Cc4c[nH]c5ccccc45)C(=O)N[C@@H](CCSC)C(=O)N[C@@H](CCCCN)C(=O)N[C@@H]([C@@H](C)O)C(=O)N3)NC2=O)C(=O)N[C@@H](CCCCN)C(=O)N[C@@H](CC(C)C)C(=O)N[C@@H](Cc2c[nH]c3ccccc23)C(=O)N1)[C@@H](C)CC)C(N)=O [compound 75] | 0.08 | > 5 | 0.43 | 5 | 0.31 | – | – | – | –
9 | CC[C@H](C)[C@H](NC(=O)[C@@H](NC(=O)[C@H](CCCCN)NC(=O)[C@H](CCCNC(=N)N)NC(=O)[C@@H]1CSSC[C@@H]2NC(=O)[C@H](C)NC(=O)[C@H](CCCNC(=N)N)NC(=O)[C@H](CCCCN)NC(=O)[C@H](CO)NC(=O)[C@H](CC(=O)O)NC(=O)[C@@H]3CSSC[C@H](NC(=O)[C@H](CCCNC(=N)N)NC(=O)[C@H](CC(C)C)NC(=O)CNC(=O)[C@H](CCC(=O)O)NC(=O)[C@H](CSSC[C@H](NC(=O)[C@H](C)N)C(=O)N[C@@H](CCC(N)=O)C(=O)N[C@@H](CCCCN)C(=O)N[C@@H](Cc4c[nH]c5ccccc45)C(=O)N[C@@H](CCSC)C(=O)N[C@@H](Cc4c[nH]c5ccccc45)C(=O)N[C@@H]([C@@H](C)O)C(=O)N3)NC2=O)C(=O)N[C@@H](CCCCN)C(=O)N[C@@H](CC(C)C)C(=O)N[C@@H](Cc2c[nH]c3ccccc23)C(=O)N1)[C@@H](C)CC)C(N)=O [compound 3] | 0.004 | 3.1 | 0.07 | 18 | 0.04 | – | – | – | –

— patent US10344060B2 (priority 2013, dated 2019)
